Experiments:
[1] = system: Klebsiella pneumoniae ATCC 4352/K2510; type: cell-based; conditions: K. pneumoniae; 100 mg/L in water; positive control
Method: (§1) The antibacterial activity of the peptides shown in Table 2 was tested at a concentration of 5,000 mg/L in an MPN suspension test (MPN=Most Probable Number) on various microorganisms (Staphylococcus aureus ATCC 6538/[…], initial bacterial count 3.6E±0.6; Klebsiella pneumoniae ATCC 4352/[…], initial bacterial count 6.1E±06). The respective peptide solutions were dissolved in water (control), detergent without enzyme (A) and detergent with enzyme (B) at a concentration of 5,000 mg/L. The MPN suspension test was performed in deep-well microtiter plates (1,000 μl volume per well), each well containing 800 μl application concentration (AWK, prepared in distilled water) with a 1.25-fold concentration of the test substance (final concentration: 5,000 mg/L). In each case, 100 μl of the bacterial suspension was added (final concentration: 1.0E±08 CFU/ml). […] After at least 5 min and a maximum of 30 min inactivation, the number of living test germ cells was determined. […] For evaluation, the growth in the wells, indicated by turbidity of the nutrient broth, was determined visually or using the Tecan reader. The microbicidal activity was calculated using the following formula: RF=K/D or log 10K-log10D, where RF=reduction factor, K=number of CFU/ml without exposure to the product (water control) and D=number of CFU/ml after exposure to the product.

[2] = system: Staphylococcus aureus ATCC 6538/K3212; type: cell-based; conditions: S. aureus; 100 mg/L in water; positive control
Method: as §1

Benzalkonium chloride
Log reduction, Water [1]: >4.40
Log reduction, Water [2]: >4.65

From US20250171715A1, “DETERGENT AND CLEANING AGENT CONTAINING ANTIMICROBIAL PEPTIDE” (HENKEL AG & CO. KGAA, priority 2023, published 2025)
